# Laboratory results as given in patent publication EP1808181A1, “Polysaccharide-cyclodextrin conjugates” (B. BRAUN MELSUNGEN AG, priority 2006, dated 2007).
# Experiments:
# physchem = settings: water
# [1] = Haemolysis of washed human erythrocytes by cyclodextrin derivatives; format: cell-based, menschlicher; settings: washed human erythrocytes (0,25%), 10 mM isotonic phosphate buffer pH 7,4, 37°C/30 min; read graphically against complete lysis in water; read-out: Cyclodextrin-Konzentration (frei bzw.gebunden) zur halb-maximalen Hämolyse
# Method: (§1) Die Hämolyserate der in Tabelle III aufgeführten Cyclodextrin-Derivate wurde wie folgt bestimmt. Humane Erythrozyten wurden aus Citratblut durch Zentrifugation gewonnen (1000 x g / 10 Minuten), in 10 mM isotonem Phosphatpuffer (pH 7,4) aufgenommen und dreimal gewaschen und in diesem Puffer auf einen Hämatokrit von 5% eingestellt. Aliquote der gewaschenen Erythrozyten (0,1 ml) wurden zu 4 ml der in der Tabelle 3 aufgelisteten Cyclodextrin-Derivate (jeweils 5 unterschiedliche Konzentrationen) zugegeben, gemischt und 30 Minuten bei 37°C und gelegentlichem leichten Schütteln inkubiert. Nach abermaliger Zentrifugation (1000 x g / 10 Minuten) wurde das freigesetzten Hämoglobin im Überstand spektralphotometrisch bei 543 nm bestimmt. Die Hämolyseraten wurde aus den erhaltenen Absoptionswerten im Vergleich mit einer kompletter […] in Wasser ermittelt und die Cyclodextrin- Konzentrationen mit halbmaximaler Hämolyse graphisch ermittelt.
# (§2) Tabelle III : Hämolyse gewaschener menschlicher Erythrozyten (0,25%) in 10 mM isotonem Phosphatpuffer (pH 7,4) bei 37°C/30 Minuten durch Cyclodextrin-Derivate
# Humane Erythrozyten = assay: as above; format: cell-based, menschlicher; settings: washed human erythrocytes (0,25%), 10 mM isotonic phosphate buffer pH 7,4, 37°C/30 min; read graphically against complete lysis in water; read-out: Cyclodextrin-Konzentration (frei bzw.gebunden) zur halb-maximalen Hämolyse
# Method: as §1, §2
Compound,HC50 (Humane Erythrozyten) [mM],further results
CC(=O)[C@H]1CC[C@H]2[C@@H]3CCC4=CC(=O)CC[C@]4(C)[C@H]3CC[C@]12C [Progesteron],,solubility thermodynamic at 72 h (physchem): 15 µg/mL
OC[C@H]1O[C@@H]2O[C@H]3[C@H](O)[C@@H](O)[C@@H](O[C@H]4[C@H](O)[C@@H](O)[C@@H](O[C@H]5[C@H](O)[C@@H](O)[C@@H](O[C@H]6[C@H](O)[C@@H](O)[C@@H](O[C@H]7[C@H](O)[C@@H](O)[C@@H](O[C@H]8[C@H](O)[C@@H](O)[C@@H](O[C@H]1[C@H](O)[C@H]2O)O[C@@H]8CO)O[C@@H]7CO)O[C@@H]6CO)O[C@@H]5CO)O[C@@H]4CO)O[C@@H]3CO [β-Cyclodextrin],,HC50 at 0.5 h [1]: 5 mM
γ--Cyclodextrin,30,
α-Cyclodextrin,11,
2-HP-β-Cyclodextrin,10,
